Activity calls are given as the source filed them.
Columns and labels:
H9c2 = assay: cells; type: functional, cell-based; conditions: Rattus norvegicus, H9c2, Myocardium;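 also: confirmatory concentration-response retest of ultra-high-throughput screening hits for modulation of myocardial damage; cell death induced by hydrogen peroxide oxidative stress; compound pretreatment for 60 min then peroxide exposure for 2 h; potency is for protecting the cells against peroxide damage rather than for killing them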
[1] = target: Disintegrin and metalloproteinase domain-containing protein 17 (Homo sapiens, UniProt P78536); assay: inhibition of ADAM17 substrate cleavage – biochemical, quenched FRET substrate, counter-screen for ADAM10 exosite inhibitor project, dose response (AID 743253)
Chain of Disintegrin and metalloproteinase domain-containing protein 17 (P78536 whole entry, the tested form may be a part): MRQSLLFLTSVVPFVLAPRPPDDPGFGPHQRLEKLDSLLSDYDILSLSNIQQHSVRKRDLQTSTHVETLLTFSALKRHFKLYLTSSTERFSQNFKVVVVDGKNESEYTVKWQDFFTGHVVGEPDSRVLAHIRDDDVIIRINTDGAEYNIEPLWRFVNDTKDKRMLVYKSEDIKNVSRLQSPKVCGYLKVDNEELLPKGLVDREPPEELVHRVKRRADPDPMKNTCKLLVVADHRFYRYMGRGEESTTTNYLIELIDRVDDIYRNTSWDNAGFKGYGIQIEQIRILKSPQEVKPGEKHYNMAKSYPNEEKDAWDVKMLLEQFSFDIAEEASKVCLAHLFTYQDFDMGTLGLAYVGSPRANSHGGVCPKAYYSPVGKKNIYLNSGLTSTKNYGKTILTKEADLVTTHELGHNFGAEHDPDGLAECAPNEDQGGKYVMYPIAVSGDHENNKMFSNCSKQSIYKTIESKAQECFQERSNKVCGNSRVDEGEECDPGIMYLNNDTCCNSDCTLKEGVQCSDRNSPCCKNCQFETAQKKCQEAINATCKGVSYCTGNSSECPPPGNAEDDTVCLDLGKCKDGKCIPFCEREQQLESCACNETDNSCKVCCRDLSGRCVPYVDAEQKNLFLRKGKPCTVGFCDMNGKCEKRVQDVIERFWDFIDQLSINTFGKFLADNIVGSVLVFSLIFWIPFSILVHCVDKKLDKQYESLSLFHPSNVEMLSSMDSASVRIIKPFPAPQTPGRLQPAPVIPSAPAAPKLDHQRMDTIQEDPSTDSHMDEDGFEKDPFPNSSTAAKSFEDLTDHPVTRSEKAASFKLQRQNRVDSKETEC

Vero = assay: cells; type: functional, cell-based; conditions: Chlorocebus sabaeus
[2] = blockers of HIV-1 envelope-mediated cell-cell fusion – cherry-pick, dose response (AID 652057); type: functional, cell-based
[3] = blockers of HIV-1 ZM109 envelope-driven cell-cell fusion – HeLa effector, CEM target cells, luciferase, cherry-pick, dose response (AID 652058); type: functional, cell-based;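 also: luciferase signal from HIV-1 Env mediated cell-cell fusion of effector and target cells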
[4] = off-target signal loss in HeLa-CEM21 co-culture – HeLa F-luc CTL cells, cherry-picked, counter-screen for HIV-1 Env fusion inhibitor project, dose response (AID 652040); type: functional, cell-based;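 also: potency for signal decrease marking cytotoxic or nonspecific inhibition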
[5] = HIV-1 AD8 envelope cell-cell fusion blockers – cherry-pick, dose response (AID 652062); type: functional, cell-based;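 also: luciferase signal from cell-cell fusion driven by HIV-1 clade B AD8 Env; potency is for inhibitors of fusion seen as a drop in luminescence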
[6] = target: T1, Calpain-2 catalytic subunit (Sus scrofa, UniProt P43367); assay: m-calpain protease blockers, concentration series – biochemical, fluorogenic peptide substrate, dose response (AID 1420); type: functional
T1 sequence (P43367 whole entry): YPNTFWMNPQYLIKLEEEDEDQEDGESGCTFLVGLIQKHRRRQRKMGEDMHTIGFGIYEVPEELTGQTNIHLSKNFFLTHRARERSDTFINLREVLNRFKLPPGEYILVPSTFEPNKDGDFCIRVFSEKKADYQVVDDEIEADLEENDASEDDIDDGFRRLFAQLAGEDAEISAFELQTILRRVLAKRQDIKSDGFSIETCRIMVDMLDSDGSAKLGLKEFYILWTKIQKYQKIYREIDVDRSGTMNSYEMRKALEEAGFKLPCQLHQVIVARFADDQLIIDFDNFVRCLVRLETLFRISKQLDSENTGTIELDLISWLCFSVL

[7] = microbe, parasite or virus in culture; type: functional; conditions: Mycobacterium tuberculosis
[8] = target: T2, Microphthalmia-associated transcription factor (Homo sapiens, UniProt O75030); assay: reducers of TRPM1 reporter luminescence, concentration series – cell-based, SK-MEL-5, cherry-picked, set 3, MITF inhibitor project, dose response (AID 493073); type: functional;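 also: SK-MEL-5 melanoma cells with luciferase driven by the MITF target TRPM1 promoter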
T2 sequence (O75030 whole entry): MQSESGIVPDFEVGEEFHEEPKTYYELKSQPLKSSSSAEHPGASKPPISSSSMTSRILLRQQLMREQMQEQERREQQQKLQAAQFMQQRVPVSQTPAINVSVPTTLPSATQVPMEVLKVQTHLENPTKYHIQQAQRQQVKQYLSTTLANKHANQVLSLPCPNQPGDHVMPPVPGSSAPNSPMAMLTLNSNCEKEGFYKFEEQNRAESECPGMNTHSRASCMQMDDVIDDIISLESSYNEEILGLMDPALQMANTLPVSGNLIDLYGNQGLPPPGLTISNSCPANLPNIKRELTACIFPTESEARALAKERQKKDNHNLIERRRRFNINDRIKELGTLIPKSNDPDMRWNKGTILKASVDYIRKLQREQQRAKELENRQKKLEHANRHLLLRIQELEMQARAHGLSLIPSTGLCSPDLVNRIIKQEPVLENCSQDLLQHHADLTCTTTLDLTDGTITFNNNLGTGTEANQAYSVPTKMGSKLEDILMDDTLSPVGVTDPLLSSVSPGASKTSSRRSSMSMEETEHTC

[9] = target: T3, Replicative DNA helicase DnaB (Mycobacterium tuberculosis, UniProt P9WMR3); assay: DnaB intein splicing inhibitors, dose response, biochemical, cell-free fluorescence (AID 449749); type: functional
T3 sequence (P9WMR3 whole entry): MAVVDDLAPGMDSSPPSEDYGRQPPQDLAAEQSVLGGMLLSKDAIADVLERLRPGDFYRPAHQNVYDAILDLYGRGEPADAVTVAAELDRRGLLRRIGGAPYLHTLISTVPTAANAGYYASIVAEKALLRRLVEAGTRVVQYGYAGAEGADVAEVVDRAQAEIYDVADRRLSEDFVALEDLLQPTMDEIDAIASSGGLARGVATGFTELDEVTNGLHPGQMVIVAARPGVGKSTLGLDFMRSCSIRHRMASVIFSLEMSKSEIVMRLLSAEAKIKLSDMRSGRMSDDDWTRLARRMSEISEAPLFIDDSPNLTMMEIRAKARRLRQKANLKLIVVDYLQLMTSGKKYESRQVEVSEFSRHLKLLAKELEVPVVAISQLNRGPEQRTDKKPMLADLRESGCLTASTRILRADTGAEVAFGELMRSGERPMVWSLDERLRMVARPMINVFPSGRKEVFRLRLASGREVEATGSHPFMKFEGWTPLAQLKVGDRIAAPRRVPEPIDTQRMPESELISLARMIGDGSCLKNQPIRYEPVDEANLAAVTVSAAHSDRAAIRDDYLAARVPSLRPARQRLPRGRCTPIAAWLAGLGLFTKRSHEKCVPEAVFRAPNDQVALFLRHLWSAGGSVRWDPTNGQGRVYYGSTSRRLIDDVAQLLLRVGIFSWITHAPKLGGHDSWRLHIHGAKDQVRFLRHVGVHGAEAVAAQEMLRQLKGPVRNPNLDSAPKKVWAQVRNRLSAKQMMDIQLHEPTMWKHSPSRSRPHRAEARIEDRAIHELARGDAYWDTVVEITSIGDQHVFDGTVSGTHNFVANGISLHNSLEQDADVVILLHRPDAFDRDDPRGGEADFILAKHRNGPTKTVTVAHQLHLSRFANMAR

Protein RecA = target: T4, Protein RecA (Mycobacterium tuberculosis, UniProt P9WHJ3); assay: Fluorescence Cell-Free Homogeneous Dose Retest to Identify Inhibitors of RecA-Intein Splicing Activity. [Related pubchem assays (depositor defined):AID2097, AID2223, AID489010, AID492950]; type: functional
T4 sequence (P9WHJ3 whole entry): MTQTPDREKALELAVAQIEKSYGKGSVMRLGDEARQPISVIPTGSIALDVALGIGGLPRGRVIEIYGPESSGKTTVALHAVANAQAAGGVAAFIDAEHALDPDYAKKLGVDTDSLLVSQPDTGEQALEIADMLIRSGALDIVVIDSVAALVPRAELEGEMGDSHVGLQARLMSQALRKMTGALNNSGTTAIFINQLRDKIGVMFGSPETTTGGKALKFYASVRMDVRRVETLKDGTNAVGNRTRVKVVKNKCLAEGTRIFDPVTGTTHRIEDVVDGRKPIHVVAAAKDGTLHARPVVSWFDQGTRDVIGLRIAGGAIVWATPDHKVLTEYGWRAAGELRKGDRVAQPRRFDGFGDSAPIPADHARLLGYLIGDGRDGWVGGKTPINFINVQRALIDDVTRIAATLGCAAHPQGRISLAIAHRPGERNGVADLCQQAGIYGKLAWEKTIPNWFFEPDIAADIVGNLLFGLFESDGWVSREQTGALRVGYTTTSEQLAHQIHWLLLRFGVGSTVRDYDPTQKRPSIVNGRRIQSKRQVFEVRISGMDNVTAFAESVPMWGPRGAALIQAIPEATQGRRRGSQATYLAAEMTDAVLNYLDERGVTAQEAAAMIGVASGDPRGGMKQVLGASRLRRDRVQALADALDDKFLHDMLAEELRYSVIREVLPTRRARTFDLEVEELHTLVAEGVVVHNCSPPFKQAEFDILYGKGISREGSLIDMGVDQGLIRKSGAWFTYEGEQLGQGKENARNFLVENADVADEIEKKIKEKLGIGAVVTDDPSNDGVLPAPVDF

[10] = intracellular Trypanosoma cruzi inhibitors in host cells – cell-based, plate reader, cherry-pick samples, set 3, dose response (AID 651818); type: functional;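 also: compounds incubated with infected cells for about four days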
[11] = viability of uninfected HEp-2 cells – cell-based, HTS, cytotoxicity control for RSV inhibitor project, dose response (AID 2410); type: functional; conditions: human respiratory syncytial virus
[12] = system: Streptococcus sp. 'group A'; assay: Streptococcus pyogenes SK(-)GAS viability under kanamycin – luminescence, BacTiterGlo, confirmation, counter-screen for streptokinase expression inhibitor project, dose response (AID 1900); type: functional, organism-based
Streptokinase A = target: T5, Streptokinase A (Streptococcus pyogenes serotype M1, UniProt P10520); assay: viability-normalized secreted streptokinase activity reduction – plasminogen activation absorbance, OD405, dose response (AID 1914); type: functional, Streptococcus pyogenes M1 GAS;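 also: secreted streptokinase activity via plasminogen activation per viability signal from cell pellet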
T5 sequence (P10520 whole entry): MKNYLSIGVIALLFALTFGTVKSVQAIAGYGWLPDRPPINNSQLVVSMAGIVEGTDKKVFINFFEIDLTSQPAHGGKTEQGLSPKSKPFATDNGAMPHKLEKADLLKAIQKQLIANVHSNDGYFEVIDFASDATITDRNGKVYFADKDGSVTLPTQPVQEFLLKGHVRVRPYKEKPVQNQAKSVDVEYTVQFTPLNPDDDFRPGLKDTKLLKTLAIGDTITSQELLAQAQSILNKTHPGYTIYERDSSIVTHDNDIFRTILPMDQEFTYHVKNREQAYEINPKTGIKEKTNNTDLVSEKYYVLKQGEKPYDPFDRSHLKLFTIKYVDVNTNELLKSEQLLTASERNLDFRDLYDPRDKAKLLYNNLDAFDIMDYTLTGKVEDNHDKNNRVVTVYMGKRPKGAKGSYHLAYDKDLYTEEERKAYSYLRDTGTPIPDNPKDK

Streptococcus = assay: GAS UMAA2166 growth inhibition – luminescence, BacTiterGlo, counter-screen for streptokinase expression inhibitor project, dose response (AID 1915); type: functional, organism-based;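 also: potency for reduction of bacterial viability or growth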
[13] = target: Induced myeloid leukemia cell differentiation protein Mcl-1 (Homo sapiens, UniProt Q07820); type: functional
Chain of Induced myeloid leukemia cell differentiation protein Mcl-1 (Q07820 whole entry): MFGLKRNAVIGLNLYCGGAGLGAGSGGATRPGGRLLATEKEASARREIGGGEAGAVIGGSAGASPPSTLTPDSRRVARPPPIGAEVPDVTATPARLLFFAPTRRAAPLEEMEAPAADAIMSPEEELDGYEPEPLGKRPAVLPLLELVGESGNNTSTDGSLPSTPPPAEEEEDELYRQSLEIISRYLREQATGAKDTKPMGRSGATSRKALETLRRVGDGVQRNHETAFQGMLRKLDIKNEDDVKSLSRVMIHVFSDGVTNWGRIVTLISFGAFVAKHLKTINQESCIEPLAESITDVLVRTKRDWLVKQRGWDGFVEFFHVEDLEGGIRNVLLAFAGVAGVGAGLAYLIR

Paired box protein Pax-8 = Paired box protein Pax-8 (Homo sapiens, UniProt Q06710); assay: PAX8 transcriptional activity inhibition in RMG-I – RMG-I cells, luciferase, cherry-pick, dose response (AID 687027); type: functional, cell-based;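 also: luciferase reporter driven by Pax8 target thyroperoxidase promoter measured by SteadyGlo luminescence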
Chain of Paired box protein Pax-8 (Q06710 whole entry): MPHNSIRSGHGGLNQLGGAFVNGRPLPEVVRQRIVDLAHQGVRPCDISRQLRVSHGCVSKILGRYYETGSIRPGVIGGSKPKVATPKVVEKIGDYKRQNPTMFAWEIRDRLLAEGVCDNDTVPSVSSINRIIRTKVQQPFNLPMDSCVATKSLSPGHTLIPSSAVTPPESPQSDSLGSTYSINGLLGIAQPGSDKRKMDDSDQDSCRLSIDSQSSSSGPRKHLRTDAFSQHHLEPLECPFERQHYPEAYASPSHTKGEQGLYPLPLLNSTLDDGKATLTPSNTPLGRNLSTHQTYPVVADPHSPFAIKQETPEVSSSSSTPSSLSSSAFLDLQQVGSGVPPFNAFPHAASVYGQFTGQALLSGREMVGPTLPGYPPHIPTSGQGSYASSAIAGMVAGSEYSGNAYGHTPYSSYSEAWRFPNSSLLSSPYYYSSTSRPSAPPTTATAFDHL

O=C1OCCN1C(=O)[C@H]1[C@H](c2ccc([N+](=O)[O-])cc2)C(c2cccc(Cl)c2)=NN1c1ccc(Br)cc1
IC50 (H9c2): > 79 µM (inactive)
IC50 [1]: > 69.5 µM (inactive)

CCc1ccc(-c2cc3c(=O)n(CC(=O)NCCCN4CCN(CC)CC4)nc(C)n3n2)cc1
IC50 (Vero): > 25 µM (active)

COc1ccc(N2C(=O)N3[C@H](c4ccc(Cl)cc4)[C@@H]4C(=O)N(C5CCCCC5)C(=O)[C@@H]4[C@]3(C)C2=O)cc1
AC50 [2]: 2.73 µM (active)
AC50 [3]: 3.16 µM (active)
AC50 [4]: 3.54 µM (active)
AC50 [5]: 5.1 µM (active)

O=C(CCCCn1c(=O)c2ccccc2n(CC(=O)NC2CCCC2)c1=O)NCc1ccco1
IC50 [6]: 28.8 µM (not active)

Cc1ccc(NC(=O)CCl)cc1S(=O)(=O)N1CCCCCC1
CC50 [7]: 6.13 µM (active)
AC50 [8]: 7.55 µM (active)
AC50 [9]: 14.7 µM (active)
EC50 (Protein RecA): 3.67 µM (active)

COc1ccc(S(=O)(=O)Nc2ccc3c(c2)CC(=O)N([C@H](C)CO)C[C@@H](C)[C@H](CN(C)Cc2ccc(Cl)c(Cl)c2)O3)cc1
AC50 [10]: 1.94 µM (active)

CCOC(=O)c1c(N)sc(C(O)(C(F)(F)F)C(F)(F)F)c1-c1ccc(Cl)cc1
CC50 [11]: 11.4 µM (active)
EC50 [12]: 1.96 µM (active)
EC50 (Streptokinase A): 6.86 µM (active)
IC50 [6]: 13.3 µM (not active)
EC50 (Streptococcus): 10.1 µM (active)

CC(C)CCC(CCN1CCCC1)c1ccc2c(c1)OCO2 (configuration not stated)
IC50 [13]: 6.38 µM (not active)

O=C(CSc1nnnn1-c1ccc2c(c1)OCCO2)OC1CCCCC1
IC50 [6]: 10.3 µM (not active)

C[C@@H]1CN([C@H](C)CO)C(=O)Cc2cc(NC(=O)Nc3ccc(F)cc3)ccc2O[C@@H]1CN(C)Cc1ccc(Cl)c(Cl)c1
AC50 [10]: 4.89 µM (active)
AC50 (Paired box protein Pax-8): 18.4 µM (active)
